Like-named read-outs stand apart in the source and are kept apart here.
What was measured:
[1] = Plasma glucose, cholesterol and triglycerides in normal Sprague-Dawley rats (Table 14); type: in vivo, rat; parameters: plasma GLUCOSE WK 0 / plasma GLUCOSE WK 3: unit not given beside the values
Protocol: Each treatment group was comprised of 4 animals.
To further assess the physiological effects resulting from inhibition of target mRNA, the rats were evaluated at the beginning (Wk 0) and at the end (Wk 3) of the treatment period for plasma glucose, plasma cholesterol, and plasma triglyceride levels. Triglycerides and cholesterol were measured by routine clinical analyzer instruments (e.g. Olympus Clinical Analyzer, Melville, N.Y.). Glucose levels were measured using a glucose analyzer, for example a YSI glucose analyzer (YSI Scientific, Yellow Springs, Ohio). Results are presented in Table 14 as the average level of plasma glucose, plasma cholesterol (CHOL), or plasma triglycerides (TRIG) measured per treatment group.

[2] = test system: rat glucose-6-phosphatase translocase mRNA; assay: Reduction of glucose-6-phosphatase translocase mRNA in liver or kidney of ZDF rats (Table 15); type: in vivo; conditions: for % Inhibition of glucose-6-phosphatase translocase, Kidney / % Inhibition of glucose-6-phosphatase translocase, Liver: alone or with rosiglitazone 3 mg/kg daily
Protocol: Saline-injected animals served as a control treatment group. At the end of the treatment period, animals were sacrificed and target reduction in liver and kidney were measured by real-time PCR as described in other examples herein. […] For example, the following primer-probe set was designed to hybridize to rat glucose-6-phosphatase translocase sequences cited in Table 1: Forward primer: [NT] (incorporated herein as SEQ ID NO: 339) Reverse primer: [NT] (incorporated herein as SEQ ID NO: 340) PCR probe: […] (incorporated herein as SEQ ID NO: 341), where FAM is the fluorescent dye and TAMRA is the quencher dye.

[3] = Plasma glucose levels of ZDF rats, alone or in combination with rosiglitazone (Table 16); type: in vivo, rat; conditions: alone or with Rosi
Protocol: (§1) Saline-injected animals served as a control treatment group.
(§2) Plasma glucose levels were evaluated at the beginning of the study (Wk 0), during the first week of treatment (Wk 1), during the third week of treatment (Wk 3), and during the fifth week of treatment (Wk 5).

aged Zucker fa/fa rats = assay: as above; type: in vivo, rat
Protocol: as §1, §2

[4] = Plasma lipids (cholesterol, triglycerides, free fatty acids) in ZDF rats (Table 21); type: in vivo, rat
Protocol: as §1
To further assess the physiological effects resulting from inhibition of target mRNA with antisense oligonucleotide alone or in combination with rosiglitazone, the rats were evaluated throughout the treatment period for plasma free fatty acids, plasma cholesterol, and plasma triglyceride levels. Free fatty acids, triglycerides and cholesterol were measured by routine clinical analyzer instruments (e.g. Olympus Clinical Analyzer, Melville, N.Y.). Glucose levels were measured using a glucose analyzer, for example a YSI glucose analyzer (YSI Scientific, Yellow Springs, Ohio).

[5] = rat, in vivo
Protocol: Male Zucker fa/fa rats, about 17 to 18 weeks of age, purchased from Charles River Laboratories (Wilmington, Mass.), are maintained on a normal rodent diet. Animals are placed into treatment groups of 8 animals each. One treatment group was dosed subcutaneously twice weekly with 12.5 mg/kg of ISIS 366228 (SEQ ID NO: 203). Another treatment group was dosed twice weekly with 25 mg/kg of ISIS 366228. Other treatment groups were dosed with 12.5 mg/kg or 25 mg/kg ISIS 366228 twice weekly in combination with daily 3 mg/kg doses of rosiglitazone (Rosi) administered in powdered food. Another treatment group received the food-administered daily doses of 3 mg/kg of rosiglitazone alone. Saline-injected animals served as a control treatment group.
Tissue weights were also determined at the end of the study.

[6] = ISIS 366228 12.5 mg/kg twice weekly
[7] = ISIS 366228 25 mg/kg twice weekly

GTGCTTGGCGATGGTACTGA (chemistry not given here) [ISIS 366228]
plasma cholesterol (CHOL) WK 3 ([1]; 12.5 mg/kg twice weekly, saline 58): 49 | plasma triglycerides (TRIG) WK 0 ([1]; 12.5 mg/kg twice weekly, saline 69): 54 | plasma cholesterol (CHOL) WK 0 ([1]; 12.5 mg/kg twice weekly, saline 74): 70 | plasma GLUCOSE WK 0 ([1]; 12.5 mg/kg twice weekly, saline 135): 147 | plasma GLUCOSE WK 3 ([1]; 12.5 mg/kg twice weekly, saline 139): 146 | plasma triglycerides (TRIG) WK 3 ([1]; 12.5 mg/kg twice weekly, saline 140): 84 | plasma GLUCOSE WK 0 ([1]; 25 mg/kg twice weekly): 148 | plasma GLUCOSE WK 3 ([1]; 25 mg/kg twice weekly): 149 | plasma cholesterol (CHOL) WK 0 ([1]; 25 mg/kg twice weekly): 93 | plasma cholesterol (CHOL) WK 3 ([1]; 25 mg/kg twice weekly): 70 | plasma triglycerides (TRIG) WK 0 ([1]; 25 mg/kg twice weekly): 56 | plasma triglycerides (TRIG) WK 3 ([1]; 25 mg/kg twice weekly): 76 | plasma GLUCOSE WK 0 ([1]; 50 mg/kg twice weekly): 137 | plasma GLUCOSE WK 3 ([1]; 50 mg/kg twice weekly): 139 | plasma cholesterol (CHOL) WK 0 ([1]; 50 mg/kg twice weekly): 76 | plasma cholesterol (CHOL) WK 3 ([1]; 50 mg/kg twice weekly): 54 | plasma triglycerides (TRIG) WK 0 ([1]; 50 mg/kg twice weekly): 65 | plasma triglycerides (TRIG) WK 3 ([1]; 50 mg/kg twice weekly): 64 | plasma triglycerides (in words) ([1]; 12.5 to 50 mg/kg, three weeks): prevented the increases in triglycerides observed in saline-treated animals | glucose-6-phosphatase translocase levels in liver and kidney (in words) [2]: reduced glucose-6-phosphatase translocase levels in liver and kidney at both doses | % Inhibition of glucose-6-phosphatase translocase, Kidney [2, 6]: 35% | % Inhibition of glucose-6-phosphatase translocase, Liver [2, 6]: 40% | % Inhibition of glucose-6-phosphatase translocase, Kidney [2, 7]: 46% | % Inhibition of glucose-6-phosphatase translocase, Liver [2, 7]: 80% | Plasma glucose ([3]; ISIS 366228 12.5 mg/kg, Wk 0, saline 571): 570 mg/dL | Plasma glucose ([3]; ISIS 366228 12.5 mg/kg, Wk 1, saline 549): 549 mg/dL | Plasma glucose ([3]; ISIS 366228 12.5 mg/kg, Wk 3, saline 552): 547 mg/dL | Plasma glucose ([3]; ISIS 366228 12.5 mg/kg, Wk 5, saline 536): 532 mg/dL | Plasma glucose ([3]; ISIS 366228 25 mg/kg, Wk 0): 569 mg/dL | Plasma glucose ([3]; ISIS 366228 25 mg/kg, Wk 1): 542 mg/dL | Plasma glucose ([3]; ISIS 366228 25 mg/kg, Wk 3): 507 mg/dL | Plasma glucose ([3]; ISIS 366228 25 mg/kg, Wk 5): 488 mg/dL | plasma glucose over the course of the study (in words) (aged Zucker fa/fa rats): caused reductions in plasma glucose | plasma cholesterol (CHOL) ([4]; Wk 0, ISIS 366228 12.5 mg/kg): 207 mg/dL | plasma triglycerides (TRIG) ([4]; Wk 0, ISIS 366228 12.5 mg/kg): 460 mg/dL | plasma cholesterol (CHOL) ([4]; Wk 0, ISIS 366228 25 mg/kg): 210 mg/dL | plasma triglycerides (TRIG) ([4]; Wk 0, ISIS 366228 25 mg/kg): 470 mg/dL | plasma cholesterol (CHOL) ([4]; Wk 1, ISIS 366228 12.5 mg/kg): 201 mg/dL | plasma triglycerides (TRIG) ([4]; Wk 1, ISIS 366228 12.5 mg/kg): 379 mg/dL | plasma cholesterol (CHOL) ([4]; Wk 1, ISIS 366228 25 mg/kg): 196 mg/dL | plasma triglycerides (TRIG) ([4]; Wk 1, ISIS 366228 25 mg/kg): 307 mg/dL | plasma cholesterol (CHOL) ([4]; Wk 3, ISIS 366228 12.5 mg/kg): 196 mg/dL | plasma triglycerides (TRIG) ([4]; Wk 3, ISIS 366228 12.5 mg/kg): 416 mg/dL | plasma cholesterol (CHOL) ([4]; Wk 3, ISIS 366228 25 mg/kg): 206 mg/dL | plasma triglycerides (TRIG) ([4]; Wk 3, ISIS 366228 25 mg/kg): 354 mg/dL | plasma cholesterol (CHOL) ([4]; Wk 5, ISIS 366228 12.5 mg/kg): 176 mg/dL | plasma triglycerides (TRIG) ([4]; Wk 5, ISIS 366228 12.5 mg/kg): 478 mg/dL | plasma cholesterol (CHOL) ([4]; Wk 5, ISIS 366228 25 mg/kg): 183 mg/dL | plasma triglycerides (TRIG) ([4]; Wk 5, ISIS 366228 25 mg/kg): 472 mg/dL | plasma cholesterol (in words) ([4]; compared with saline or rosiglitazone alone): prevented increases in plasma cholesterol | renal enlargement (in words) [5]: renal enlargement associated with human glycogen storage disease type 1B is not observed | Fat pad weight ([5]; 12.5 mg/kg): 7 grams | Fat pad weight ([5]; 25 mg/kg): 6 grams

Reference: patent publication US8258114B2, “Modulation of glucose-6-phosphatase translocase expression” (Isis Pharmaceuticals, Inc., priority 2004, dated 2012)
